Results from ChEMBL document CHEMBL3751666, “Efficiently functionalized oxacalix[4]arenes: Synthesis, characterization and exploration of their biological profile as novel HDAC inhibitors” (2016).
≈ marks a conversion by molar mass, not a printed value. Structures can show the parent of a compound that is named as a salt.

Experiments:
Format in all cases: functional
[1] = test system: Escherichia coli; experiment: Antibacterial activity against Escherichia coli by broth micro-dilution method
[2] = test system: Pseudomonas aeruginosa; experiment: Antibacterial activity against Pseudomonas aeruginosa by broth micro-dilution method
[3] = test system: Staphylococcus aureus; experiment: Antibacterial activity against Staphylococcus aureus by broth micro-dilution method
[4] = test system: Streptococcus pyogenes; experiment: Antibacterial activity against Streptococcus pyogenes by broth micro-dilution method
[5] = test system: Candida albicans; experiment: Antifungal activity against Candida albicans by broth micro-dilution method
[6] = test system: Aspergillus niger; experiment: Antifungal activity against Aspergillus niger by broth micro-dilution method
[7] = test system: Aspergillus clavatus; experiment: Antifungal activity against Aspergillus clavatus by broth micro-dilution method
[8] = test system: HeLa; experiment: Cytotoxicity against human HeLa cells; conditions: for CC50: read-out: LC50 (the source's name)

| Compound | MIC [1] [µg/mL] | MIC [2] [µg/mL] | MIC [3] [µg/mL] | MIC [4] [µg/mL] | MIC [5] [µg/mL] | MIC [6] [µg/mL] | MIC [7] [µg/mL] | GI50 [8] [µM] | TGI [8] [µM] | CC50 [8] [µM] |
| --- | --- | --- | --- | --- | --- | --- | --- | --- | --- | --- |
| O=C(COc1cc2cc(c1)Oc1cc(c([N+](=O)[O-])cc1[N+](=O)[O-])Oc1cc(OCC(=O)Nc3nc4ccccc4s3)cc(c1)Oc1cc(c([N+](=O)[O-])cc1[N+](=O)[O-])O2)Nc1nc2ccccc2s1 | 6.25 (≈ 6.5 µM) | 6.25 (≈ 6.5 µM) | 1 (≈ 1.04 µM) | 50 (≈ 52 µM) | 50 (≈ 52 µM) | 50 (≈ 52 µM) | 12.5 (≈ 13 µM) | 10.3 | 19.4 | > 100 |
| O=[N+]([O-])c1cc([N+](=O)[O-])c2cc1Oc1cc(cc(OS(=O)(=O)c3cccc4cccnc34)c1)Oc1cc(c([N+](=O)[O-])cc1[N+](=O)[O-])Oc1cc(cc(OS(=O)(=O)c3cccc4cccnc34)c1)O2 | 6.25 (≈ 6.49 µM) | 12.5 (≈ 13 µM) | 3.12 (≈ 3.25 µM) | 12.5 (≈ 13 µM) | 25 (≈ 26 µM) | 50 (≈ 51.9 µM) | 25 (≈ 26 µM) | 12.8 | 25.6 | > 100 |
| O=C(COc1cc2cc(c1)Oc1cc(c([N+](=O)[O-])cc1[N+](=O)[O-])Oc1cc(OCC(=O)N(c3ccccc3)c3ccccc3)cc(c1)Oc1cc(c([N+](=O)[O-])cc1[N+](=O)[O-])O2)N(c1ccccc1)c1ccccc1 | 1.75 (≈ 1.75 µM) | 1 (≈ 1 µM) | 1.75 (≈ 1.75 µM) | 3.12 (≈ 3.13 µM) | 12.5 (≈ 12.5 µM) | 25 (≈ 25 µM) | 12.5 (≈ 12.5 µM) | 38.3 | 82.2 | > 100 |
| NYSTATIN |  |  |  |  | 10 | 10 | 10 |  |  |  |
| O=C(COc1cc2cc(c1)Oc1cc(c([N+](=O)[O-])cc1[N+](=O)[O-])Oc1cc(OCC(=O)Nc3nc4ccc(Br)cc4s3)cc(c1)Oc1cc(c([N+](=O)[O-])cc1[N+](=O)[O-])O2)Nc1nc2ccc(Br)cc2s1 | 1 (≈ 0.894 µM) | 1.75 (≈ 1.56 µM) | 1 (≈ 0.894 µM) | 25 (≈ 22.3 µM) | 25 (≈ 22.3 µM) | 25 (≈ 22.3 µM) | 25 (≈ 22.3 µM) | 2.1 | 4.6 | > 100 |
| O=C(COc1cc2cc(c1)Oc1cc(c([N+](=O)[O-])cc1[N+](=O)[O-])Oc1cc(OCC(=O)Nc3cccc4c3C(=O)c3ccccc3C4=O)cc(c1)Oc1cc(c([N+](=O)[O-])cc1[N+](=O)[O-])O2)Nc1cccc2c1C(=O)c1ccccc1C2=O | 25 (≈ 22.6 µM) | 1.75 (≈ 1.58 µM) | 50 (≈ 45.2 µM) | 1 (≈ 0.903 µM) | 50 (≈ 45.2 µM) | 50 (≈ 45.2 µM) | 25 (≈ 22.6 µM) | 53.4 | > 100 | > 100 |
| O=C(COc1cc2cc(c1)Oc1cc(c([N+](=O)[O-])cc1[N+](=O)[O-])Oc1cc(OCC(=O)Nc3nc4ccc(Cl)cc4s3)cc(c1)Oc1cc(c([N+](=O)[O-])cc1[N+](=O)[O-])O2)Nc1nc2ccc(Cl)cc2s1 | 6.25 (≈ 6.07 µM) | 6.25 (≈ 6.07 µM) | 12.5 (≈ 12.1 µM) | 3.12 (≈ 3.03 µM) | 50 (≈ 48.6 µM) | 50 (≈ 48.6 µM) | 50 (≈ 48.6 µM) | 13.7 | 28.6 | > 100 |
| CC1(C)S[C@@H]2[C@H](NC(=O)[C@H](N)c3ccccc3)C(=O)N2[C@H]1C(=O)O [AMPICILLIN] | 1 (≈ 2.86 µM) |  | 2 (≈ 5.72 µM) | 10 (≈ 28.6 µM) |  |  |  |  |  |  |
| Cc1cccc2sc(NC(=O)COc3cc4cc(c3)Oc3cc(c([N+](=O)[O-])cc3[N+](=O)[O-])Oc3cc(OCC(=O)Nc5nc6c(C)cccc6s5)cc(c3)Oc3cc(c([N+](=O)[O-])cc3[N+](=O)[O-])O4)nc12 | 25 (≈ 25.3 µM) | 12.5 (≈ 12.6 µM) | 3.12 (≈ 3.16 µM) | 6.25 (≈ 6.32 µM) | 25 (≈ 25.3 µM) | 25 (≈ 25.3 µM) | 12.5 (≈ 12.6 µM) | 7.7 | 13.4 | > 100 |
| COc1ccc2nc(NC(=O)COc3cc4cc(c3)Oc3cc(c([N+](=O)[O-])cc3[N+](=O)[O-])Oc3cc(OCC(=O)Nc5nc6ccc(OC)cc6s5)cc(c3)Oc3cc(c([N+](=O)[O-])cc3[N+](=O)[O-])O4)sc2c1 | 50 (≈ 49 µM) | 25 (≈ 24.5 µM) | 12.5 (≈ 12.2 µM) | 3.12 (≈ 3.06 µM) | 50 (≈ 49 µM) | 25 (≈ 24.5 µM) | 12.5 (≈ 12.2 µM) | 20.1 | 39.4 | > 100 |
| COc1cccc2c1C(=O)c1c(O)c3c(c(O)c1C2=O)C[C@@](O)(C(=O)CO)C[C@@H]3O[C@H]1C[C@H](N)[C@H](O)[C@H](C)O1 [DOXORUBICIN HYDROCHLORIDE] |  |  |  |  |  |  |  | < 0.1 | < 0.1 | 95.5 |
| O=[N+]([O-])c1cc([N+](=O)[O-])c2cc1Oc1cc(cc(OS(=O)(=O)c3cccc4ccccc34)c1)Oc1cc(c([N+](=O)[O-])cc1[N+](=O)[O-])Oc1cc(cc(OS(=O)(=O)c3cccc4ccccc34)c1)O2 | 3.12 (≈ 3.25 µM) | 3.12 (≈ 3.25 µM) | 6.25 (≈ 6.5 µM) | 12.5 (≈ 13 µM) | 12.5 (≈ 13 µM) | 50 (≈ 52 µM) | 50 (≈ 52 µM) | 31.3 | 61.3 | > 100 |
| O=C(Oc1cc2cc(c1)Oc1cc(c([N+](=O)[O-])cc1[N+](=O)[O-])Oc1cc(OC(=O)c3cccc4ccccc34)cc(c1)Oc1cc(c([N+](=O)[O-])cc1[N+](=O)[O-])O2)c1cccc2ccccc12 | 1.75 (≈ 1.97 µM) | 1.75 (≈ 1.97 µM) | 50 (≈ 56.3 µM) | 12.5 (≈ 14.1 µM) | 25 (≈ 28.1 µM) | 12.5 (≈ 14.1 µM) | 12.5 (≈ 14.1 µM) | 16.3 | 32.6 | > 100 |
| O=C(COc1cc2cc(c1)Oc1cc(c([N+](=O)[O-])cc1[N+](=O)[O-])Oc1cc(OCC(=O)Nc3cccc4cccnc34)cc(c1)Oc1cc(c([N+](=O)[O-])cc1[N+](=O)[O-])O2)Nc1cccc2cccnc12 | 50 (≈ 52.7 µM) | 3.12 (≈ 3.29 µM) | 50 (≈ 52.7 µM) | 50 (≈ 52.7 µM) | 50 (≈ 52.7 µM) | 50 (≈ 52.7 µM) | 50 (≈ 52.7 µM) | 28.8 | 59.2 | > 100 |
| CCn1cc(C(=O)O)c(=O)c2cc(F)c(N3CCNCC3)cc21 [NORFLOXACIN] | 1 (≈ 3.13 µM) | 1 (≈ 3.13 µM) | 1 (≈ 3.13 µM) | 1 (≈ 3.13 µM) |  |  |  |  |  |  |
| COC1=CC(=O)C[C@@H](C)[C@]12Oc1c(Cl)c(OC)cc(OC)c1C2=O [GRISEOFULVIN] |  |  |  |  | 50 (≈ 142 µM) | 10 (≈ 28.3 µM) | 10 (≈ 28.3 µM) |  |  |  |
| O=C(COc1cc2cc(c1)Oc1cc(c([N+](=O)[O-])cc1[N+](=O)[O-])Oc1cc(OCC(=O)Nc3nc4ccc([N+](=O)[O-])cc4s3)cc(c1)Oc1cc(c([N+](=O)[O-])cc1[N+](=O)[O-])O2)Nc1nc2ccc([N+](=O)[O-])cc2s1 | 12.5 (≈ 11.9 µM) | 50 (≈ 47.6 µM) | 1.75 (≈ 1.67 µM) | 1.75 (≈ 1.67 µM) | 50 (≈ 47.6 µM) | 42.9 (≈ 40.8 µM) | 50 (≈ 47.6 µM) | 41.3 | 93.2 | > 100 |
| GENTAMICIN | 0.005 | 1 | 0.025 | 0.05 |  |  |  |  |  |  |
